≈ marks a conversion by molar mass, not a printed value. Read-outs that look alike come from different tables or passages of the source.
Experiments:
[1] = tested on: Staphylococcus aureus ATCC BAA-976; experiment: MIC, broth microdilution, MDR/BPSA reference strain; type: cell-based; settings: ATCCBAA976; Staphylococcus aureus ATCC BAA-976; read-out: MIC MDR/BPSA
How it was run: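 Compounds tested as free bases dissolved in DMSO (1 mg/mL stock); determinations done twice; linezolid as positive control.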

[2] = tested on: clinical MDR Staphylococcus epidermidis isolates; experiment: MIC, broth microdilution, 81 clinical MDR strains; type: cell-based; settings: Staphylococcus epidermidis
How it was run: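 MICs were determined by twofold broth microdilution in cation-adjusted Mueller-Hinton II broth per EUCAST, over 50–0.1 µg/mL, in duplicate. Compounds were tested as free bases dissolved in DMSO; MIC50 and MIC90 were derived across the 81 clinical MDR S. epidermidis strains.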

O=C(Nc1cccc(Cl)c1)NC1CCN(CCC(Oc2ccc(C(F)(F)F)cc2)c2cccs2)CC1 (stereo not drawn) [Compound 25]
MIC [1]: 1.6 µg/mL (≈ 2.97 µM) | MIC ([2]; 81 clinical strains (Table S5), read-out: Average of MIC): 1.84 µg/mL (≈ 3.42 µM) | MIC ([2]; clinical strain 1 (Table S2), read-out: MIC): 0.8 µg/mL (≈ 1.49 µM) | MIC ([2]; clinical strain 1 (Table S5), read-out: MIC): 1.6 µg/mL (≈ 2.97 µM) | MIC ([2]; clinical strain 2 (Table S2), read-out: MIC): 0.8 µg/mL (≈ 1.49 µM) | MIC ([2]; clinical strain 2 (Table S5), read-out: MIC): 1.6 µg/mL (≈ 2.97 µM) | MIC ([2]; clinical strain 3 (Table S2), read-out: MIC): 0.8 µg/mL (≈ 1.49 µM) | MIC ([2]; clinical strain 3 (Table S5), read-out: MIC): 0.8 µg/mL (≈ 1.49 µM) | MIC ([2]; clinical strain 4 (Table S2), read-out: MIC): 3.12 µg/mL (≈ 5.81 µM) | MIC ([2]; clinical strain 4 (Table S5), read-out: MIC): 1.6 µg/mL (≈ 2.97 µM) | MIC ([2]; clinical strain 5 (Table S2), read-out: MIC): 0.8 µg/mL (≈ 1.49 µM) | MIC ([2]; clinical strain 6 (Table S2), read-out: MIC): 1.6 µg/mL (≈ 2.97 µM) | MIC ([2]; clinical strain 6 (Table S5), read-out: MIC): 1.6 µg/mL (≈ 2.97 µM) | MIC ([2]; clinical strain 7 (Table S2), read-out: MIC): 1.6 µg/mL (≈ 2.97 µM) | MIC ([2]; clinical strain 7 (Table S5), read-out: MIC): 1.6 µg/mL (≈ 2.97 µM) | MIC ([2]; clinical strain 8 (Table S2), read-out: MIC): 1.6 µg/mL (≈ 2.97 µM) | MIC ([2]; clinical strain 8 (Table S5), read-out: MIC): 0.8 µg/mL (≈ 1.49 µM) | MIC ([2]; clinical strain 9 (Table S2), read-out: MIC): 0.8 µg/mL (≈ 1.49 µM) | MIC ([2]; clinical strain 9 (Table S5), read-out: MIC): 3.12 µg/mL (≈ 5.81 µM) | MIC ([2]; clinical strain 10 (Table S2), read-out: MIC): 3.12 µg/mL (≈ 5.81 µM) | MIC ([2]; clinical strain 10 (Table S5), read-out: MIC): 3.12 µg/mL (≈ 5.81 µM) | MIC ([2]; clinical strain 11 (Table S2), read-out: MIC): 1.6 µg/mL (≈ 2.97 µM) | MIC ([2]; clinical strain 11 (Table S5), read-out: MIC): 1.6 µg/mL (≈ 2.97 µM) | MIC ([2]; clinical strain 12 (Table S2), read-out: MIC): 3.12 µg/mL (≈ 5.81 µM) | MIC ([2]; clinical strain 12 (Table S5), read-out: MIC): 1.6 µg/mL (≈ 2.97 µM) | MIC ([2]; clinical strain 13 (Table S2), read-out: MIC): 1.6 µg/mL (≈ 2.97 µM) | MIC ([2]; clinical strain 13 (Table S5), read-out: MIC): 1.6 µg/mL (≈ 2.97 µM) | MIC ([2]; clinical strain 14 (Table S2), read-out: MIC): 3.12 µg/mL (≈ 5.81 µM) | MIC ([2]; clinical strain 14 (Table S5), read-out: MIC): 1.6 µg/mL (≈ 2.97 µM) | MIC ([2]; clinical strain 15 (Table S2), read-out: MIC): 1.6 µg/mL (≈ 2.97 µM) | MIC ([2]; clinical strain 15 (Table S5), read-out: MIC): 3.12 µg/mL (≈ 5.81 µM) | MIC ([2]; clinical strain 16 (Table S2), read-out: MIC): 3.12 µg/mL (≈ 5.81 µM) | MIC ([2]; clinical strain 16 (Table S5), read-out: MIC): 1.6 µg/mL (≈ 2.97 µM) | MIC ([2]; clinical strain 17 (Table S2), read-out: MIC): 1.6 µg/mL (≈ 2.97 µM) | MIC ([2]; clinical strain 17 (Table S5), read-out: MIC): 0.1 µg/mL (≈ 0.186 µM) | MIC ([2]; clinical strain 18 (Table S2), read-out: MIC): 1.6 µg/mL (≈ 2.97 µM) | MIC ([2]; clinical strain 18 (Table S5), read-out: MIC): 3.12 µg/mL (≈ 5.81 µM) | MIC ([2]; clinical strain 19 (Table S2), read-out: MIC): 1.6 µg/mL (≈ 2.97 µM) | MIC ([2]; clinical strain 19 (Table S5), read-out: MIC): 0.8 µg/mL (≈ 1.49 µM) | MIC ([2]; clinical strain 20 (Table S2), read-out: MIC): 0.1 µg/mL (≈ 0.186 µM) | MIC ([2]; clinical strain 20 (Table S5), read-out: MIC): 1.6 µg/mL (≈ 2.97 µM) | MIC ([2]; clinical strain 21 (Table S2), read-out: MIC): 1.6 µg/mL (≈ 2.97 µM) | MIC ([2]; clinical strain 21 (Table S5), read-out: MIC): 1.6 µg/mL (≈ 2.97 µM) | MIC ([2]; clinical strain 22 (Table S2), read-out: MIC): 1.6 µg/mL (≈ 2.97 µM) | MIC ([2]; clinical strain 22 (Table S5), read-out: MIC): 0.8 µg/mL (≈ 1.49 µM) | MIC ([2]; clinical strain 23 (Table S2), read-out: MIC): 1.6 µg/mL (≈ 2.97 µM) | MIC ([2]; clinical strain 23 (Table S5), read-out: MIC): 1.6 µg/mL (≈ 2.97 µM) | MIC ([2]; clinical strain 24 (Table S2), read-out: MIC): 0.8 µg/mL (≈ 1.49 µM) | MIC ([2]; clinical strain 24 (Table S5), read-out: MIC): 1.6 µg/mL (≈ 2.97 µM) | MIC ([2]; clinical strain 25 (Table S2), read-out: MIC): 3.12 µg/mL (≈ 5.81 µM) | MIC ([2]; clinical strain 25 (Table S5), read-out: MIC): 0.8 µg/mL (≈ 1.49 µM) | MIC ([2]; clinical strain 26 (Table S2), read-out: MIC): 1.6 µg/mL (≈ 2.97 µM) | MIC ([2]; clinical strain 26 (Table S5), read-out: MIC): 3.12 µg/mL (≈ 5.81 µM) | MIC ([2]; clinical strain 27 (Table S2), read-out: MIC): 0.4 µg/mL (≈ 0.743 µM) | MIC ([2]; clinical strain 27 (Table S5), read-out: MIC): 3.12 µg/mL (≈ 5.81 µM) | MIC ([2]; clinical strain 28 (Table S2), read-out: MIC): 0.8 µg/mL (≈ 1.49 µM) | MIC ([2]; clinical strain 28 (Table S5), read-out: MIC): 0.8 µg/mL (≈ 1.49 µM) | MIC ([2]; clinical strain 29 (Table S2), read-out: MIC): 1.6 µg/mL (≈ 2.97 µM) | MIC ([2]; clinical strain 29 (Table S5), read-out: MIC): 0.4 µg/mL (≈ 0.743 µM) | MIC ([2]; clinical strain 30 (Table S2), read-out: MIC): 3.12 µg/mL (≈ 5.81 µM) | MIC ([2]; clinical strain 30 (Table S5), read-out: MIC): 0.8 µg/mL (≈ 1.49 µM) | MIC ([2]; clinical strain 31 (Table S2), read-out: MIC): 0.8 µg/mL (≈ 1.49 µM) | MIC ([2]; clinical strain 31 (Table S5), read-out: MIC): 1.6 µg/mL (≈ 2.97 µM) | MIC ([2]; clinical strain 32 (Table S2), read-out: MIC): 1.6 µg/mL (≈ 2.97 µM) | MIC ([2]; clinical strain 32 (Table S5), read-out: MIC): 1.6 µg/mL (≈ 2.97 µM) | MIC ([2]; clinical strain 33 (Table S2), read-out: MIC): 3.12 µg/mL (≈ 5.81 µM) | MIC ([2]; clinical strain 33 (Table S5), read-out: MIC): 1.6 µg/mL (≈ 2.97 µM) | MIC ([2]; clinical strain 34 (Table S2), read-out: MIC): 1.6 µg/mL (≈ 2.97 µM) | MIC ([2]; clinical strain 34 (Table S5), read-out: MIC): 1.6 µg/mL (≈ 2.97 µM) | MIC ([2]; clinical strain 35 (Table S2), read-out: MIC): 1.6 µg/mL (≈ 2.97 µM) | MIC ([2]; clinical strain 35 (Table S5), read-out: MIC): 1.6 µg/mL (≈ 2.97 µM) | MIC ([2]; clinical strain 36 (Table S2), read-out: MIC): 0.8 µg/mL (≈ 1.49 µM) | MIC ([2]; clinical strain 36 (Table S5), read-out: MIC): 1.6 µg/mL (≈ 2.97 µM) | MIC ([2]; clinical strain 37 (Table S2), read-out: MIC): 1.6 µg/mL (≈ 2.97 µM) | MIC ([2]; clinical strain 37 (Table S5), read-out: MIC): 1.6 µg/mL (≈ 2.97 µM) | MIC ([2]; clinical strain 38 (Table S2), read-out: MIC): 1.6 µg/mL (≈ 2.97 µM) | MIC ([2]; clinical strain 38 (Table S5), read-out: MIC): 1.6 µg/mL (≈ 2.97 µM) | MIC ([2]; clinical strain 39 (Table S2), read-out: MIC): 1.6 µg/mL (≈ 2.97 µM) | MIC ([2]; clinical strain 39 (Table S5), read-out: MIC): 0.8 µg/mL (≈ 1.49 µM) | MIC ([2]; clinical strain 40 (Table S2), read-out: MIC): 1.6 µg/mL (≈ 2.97 µM) | MIC ([2]; clinical strain 40 (Table S5), read-out: MIC): 0.8 µg/mL (≈ 1.49 µM) | MIC ([2]; clinical strain 41 (Table S2), read-out: MIC): 0.8 µg/mL (≈ 1.49 µM) | MIC ([2]; clinical strain 41 (Table S5), read-out: MIC): 1.6 µg/mL (≈ 2.97 µM) | MIC ([2]; clinical strain 42 (Table S2), read-out: MIC): 0.8 µg/mL (≈ 1.49 µM)

Reference: PMC10945555, “Improving Activity of New Arylurea Agents against Multidrug-Resistant and Biofilm-Producing Staphylococcus epidermidis” (ACS Medicinal Chemistry Letters, 2024)
